Laboratory results taken from PubChem BioAssay (NCI).
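Cultured in 96-well plates, cells were exposed to test compound for 48 hours across five concentrations. TGI is the concentration that stops growth completely.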

Experiments:
Test in all cases: inhibition of tumour cell growth, NCI panel, 48 h
[1] = test system: UACC-257 melanoma
[2] = test system: HCC-2998 colon
[3] = test system: MALME-3M melanoma
[4] = test system: 786-0 renal
[5] = test system: KM20L2 colon
[6] = test system: M19-MEL melanoma
[7] = test system: SF-539 CNS
[8] = test system: ACHN renal
[9] = test system: OVCAR-3 ovarian
[10] = test system: DLD-1 colon

| Compound | TGI [1] [µM] | TGI [2] [µM] | TGI [3] [µM] | TGI [4] [µM] | TGI [5] [µM] | TGI [6] [µM] | TGI [7] [µM] | TGI [8] [µM] | TGI [9] [µM] | TGI [10] [µM] |
| --- | --- | --- | --- | --- | --- | --- | --- | --- | --- | --- |
| Cc1ccc(N2C(=O)C(Cl)=C(Cl)C2=O)cc1 | 63.9 | > 100 | 33.7 | 31 | 53.6 | 41.9 | 64.2 | 34.1 | 30.5 | 40.7 |
| FC(F)(F)c1nc(-c2ccccc2)oc1Sc1oc(-c2ccccc2)nc1C(F)(F)F | > 100 | > 100 | > 100 | > 100 | > 100 | > 100 | > 100 | > 100 | > 100 | > 100 |
| O=C(O)CCSC(=S)Nc1ccc([N+](=O)[O-])cc1 | 55.1 | > 100 | > 100 | > 100 | > 100 | – | > 75.5 | > 83 | > 87.8 | – |
| Cc1ccccc1NC(=O)c1ccc([N+](=O)[O-])cc1 | > 100 | > 100 | > 100 | > 100 | > 100 | > 100 | > 100 | > 100 | > 100 | > 100 |
| Cn1sc2ccccc2c1=S | 21.3 | 45.9 | 22.9 | 13.6 | 28.8 | 16.2 | 16.4 | 26.7 | 10.5 | 10.1 |
| C=C(CN(C)C)C(=O)c1ccc(Oc2ccccc2)cc1 | 17.7 | 32.3 | 9.18 | 4.99 | 27.5 | 14.8 | 12.2 | 5.08 | 13.2 | 6.96 |
| C=C[C@H]1C=Cc2c(OC)cccc2[C@@H]1COP1(=S)NC(C)C(c2ccccc2)O1 (some centres undefined) | – | > 100 | – | > 100 | > 100 | > 100 | > 100 | – | > 100 | > 100 |
| Cc1ccc(NC(=O)CC2C(=O)Nc3ccccc3S2=O)c(C)c1 (centres undefined) | > 100 | > 72.6 | > 68.2 | 33.4 | > 49.1 | > 69.1 | 26.3 | 72.9 | 23.2 | > 76.5 |
| COc1cc(Nc2nc3cc(C(F)(F)F)ccc3nc2C)cc(OC)c1OC | 21.4 | 12.6 | 26.6 | 24.8 | – | – | 25.4 | 20.8 | 30.9 | – |
| FC(F)(F)c1cccc(C2SCc3nc4ccccc4n32)c1 (centres undefined) | > 100 | > 100 | > 100 | > 100 | – | > 100 | > 100 | > 100 | > 100 | > 100 |
| COc1ccc(C2C3=C(COC3=O)Oc3cc4c(cc32)OCO4)cc1 (centres undefined) | > 100 | – | > 100 | > 100 | 38.9 | > 100 | 56.6 | > 100 | 41.3 | > 100 |
| O=C(Cc1ccccc1)NS(=O)(=O)c1ccccc1 | > 100 | > 100 | > 100 | > 100 | > 100 | – | > 100 | > 100 | > 100 | > 100 |
